# Data as given in patent US20240270737A1, “SMALL MOLECULAR INHIBITORS OF STING SIGNALING COMPOSITIONS AND METHODS OF USE” (STINGINN INC., priority 2021, published 2024).
# Tests used:
# Format in all cases: cell-based, human
# pIRF3, pSTING = assay: Western blot of pIRF3, pSTING, pTBK1 after ISD transfection in hTERT cells
# Method: FIG. 1C are photographs showing Western blot analysis of STING, phospho-TBK1 (pTBK1) and phospho-IRF3 (pIRF3) performed at 6 hours after ISD transfection with/without W1 treatment same as FIG. 1A, Mock is shown (210), ISD treatment only (220) was used as a control, according to an embodiment of the invention;
# Immunoblot analysis: Equal amounts of proteins were resolved on sodium dodecyl sulfate (SDS)-Polyacrylamide gels and then transferred to polyvinylidene fluoride (PVDF) membranes (Millipore). After blocking with 5% Blocking Reagent, membranes were incubated with various primary antibodies (and appropriate secondary antibodies). The image was resolved using an enhanced chemiluminescence system ECL (Thermo Scientific) and detected by autoradiography (Kodak). Antibodies: rabbit polyclonal antibody against STING was developed in our laboratory as described previously in Ishikawa et al, 2008; other antibodies were obtained from following sources: β-actin (Sigma Aldrich), p-IRF3 (Cell Signaling), IRF3 (Santa Cruz Biotechnology), p-p65 (Cell Signaling), p65 (Cell Signaling), p-TBK1 (Cell Signaling), TBK1 (Abcam), cGAS (Cell Signaling).
# [1] = tested on: IFNβ expression (type I IFNβ promoter driving luciferase); assay: IFNβ promoter luciferase assay in hTERT-pIFNβ-Glu cells transfected with ISD
# Method: Inhibition of IFNβ expression was measured by Luciferase induction at 24 hours after transfection of ISD, DMSO is shown (230), ISD treatment only (220) was used as a control, according to an embodiment of the invention;
# Inhibition of IFNβ expression was measured by Luciferase induction at 24 hours after transfection of ISD, Mock is shown (210), ISD treatment only (220) was used as a control, according to an embodiment of the invention;
# Identification of small molecule inhibitors of STING. In the presence of cytosolic DNA species, STING becomes activated to drive the transcription of cytokines such as type I IFN. Compounds binding to STING via TSA were subsequently examined for their ability to prevent cytosolic DNA species from activating the type I interferon (IFN) promoter, using a live cell assay. This assay comprised immortalized human fibroblasts (hTERT) that were stably transfected with the type I IFN promoter driving luciferase as well as the CMV promoter driving SEAP (hTERT-pIFNβ-Glu). The live cell assay has previously been disclosed in PCT/US2019/025380 entitled IFN-Beta Reporter System for Immortalized Primary Cells inventor Glen N. Barber, which was filed Apr. 2, 2018 and published as WO2019195285, and which is herein incorporated by reference in its entirety and for all purposes. The ability of the small molecules to prevent activation of the type I IFN promoter and the transcription of luciferase, but not SEAP in response to cytosolic DNA species was assessed. The activation of STING, typically by CDNs, in turn activates the transcription factors NF-κB and IRF3, both of which are required to induce the transcriptional stimulation of the Type I IFN promoter, but not the CMV promoter as IRF3 and NF-kB transcription factor binding sites are not contained in the CMV promoter. The assay identified the small molecule Compound W1 in the first screen (HTS), where the level of luciferase was not able to activate the type I IFN promoter or induce the expression of luciferase (see Table I and Table II).
# Inhibition of IFNβ expression was measured by Luciferase induction at 24 hours after transfection of ISD. ISD only treatment was used as control.
# Inhibition of IFNβ expression was measured by Luciferase induction at 24 hours after transfection of ISD, Mock is shown (210), ISD treatment only (220) was used as a control.
# Luciferase assay: hTERT-BJ1 Telomerase Fibroblasts stably expressing the luciferase gene under the control of the interferon-beta promoter and SEAP gene under control of the CMV promoter) (hTERT-pIFNβ-Glu) were generated by the Barber laboratory. Luciferase assay was performed using Secrete-Pair Dual Luminescence Assay Kit from GeneCopoeia following the manufacturer's protocol.
# [2] = tested on: IFNβ expression and production; assay: IFNβ expression and production in normal hTERT cells (qPCR, ELISA); conditions: ISD transfection
# Method: The ability of compound W1 administered onto normal hTERT cells to prevent cytosolic DNA from activating STING was assessed (FIGS. 1B-H). […] In addition, the level of STING phosphorylation (STING is phosphorylated following activation) and the subsequent phosphorylation of TBK1, the kinase of IRF3 was assessed. Phosphorylation of TBK1 and IRF3 are required for activation of the type I IFN promoter.
# Interferon R Elisa analysis: Interferon R Elisa was performed using either the IFNβ human ELISA Kit from Invitrogen or the Human IFNβ ELISA Kit from PBL Interferon Source following the manufacturer's protocol.
# Quantitative Real time PCR (qPCR) Total RNA were reverse-transcribed using M-MLV Reverse Transcriptase (Promega). Real-time PCR was performed using Taqman Gene Expression Assay (Applied Biosystems) for innate immune genes and inflammatory cytokines.
# STING trafficking = assay: Confocal analysis of STING trafficking in hTERT cells; conditions: 6 hours after ISD transfection
# Method: FIG. 1D are photographs showing confocal analysis for STING trafficking was performed at 6 hours after ISD transfection with/without W1, treatment same as FIG. 1A, according to an embodiment of the invention;
# Immunofluorescence Microscopy: Cells were cultured and treated in their appropriate media on Lab-Tek II chamber slides. Cell were fixed with 4% paraformaldehyde for 15 minutes in at 37° C. and permeabilized with 0.05% Triton X-100 for 5 minutes at room temperature. Immunostaining was performed with rabbit-anti-STING polyclonal, rabbit-anti-IRF3 (Santa Cruz Biotechnology) or rabbit-anti-p65 (Cell Signaling) followed by fluorescence conjugated secondary antibodies (FITC-goat-anti-rabbit) (Invitrogen).
smiles,measurement,setting,value
"Cc1cc([N+](=O)[O-])ccc1S(=O)(=O)Nc1nc2cc(C(F)(F)F)ccc2[nH]1 [Compound W1, 2-methyl-4-nitro-N-[5-(trifluoromethyl)-1H-1,3-benzodiazol-2-yl]benzene-1-sulfonamide]",inhibition at 10 µM,"pIRF3, pSTING; Homo sapiens",< 10%
same,STING phosphorylation and TBK1 and IRF3 phosphorylation,"pIRF3, pSTING; hTERT cells, 6 hours after ISD transfection",robustly prevented
same,activation of the type I IFN promoter in response to cytosolic DNA (luciferase),"[1]; 50 μM, 24 hours, ISD 3 μg/ml, hTERT-pIFNβ-Glu cells",inhibited activation of the type I IFN promoter
same,inhibition at 5 µM,[1]; Homo sapiens,4%
same,IFNβ expression and production,[2],dramatically decreased
same,STING trafficking,STING trafficking,effectively preventing STING trafficking
